The data set concerns human apolipoprotein B mRNA. The data set can be described thus: Inhibition of human apolipoprotein B mRNA levels in HepG2 cells, quantitative real-time PCR. The class given is cell-based. Particulars: HepG2 cells; human apolipoprotein B mRNA; oligonucleotides targeting genomic sequence SEQ ID NO 334; averages from two experiments. The method in brief: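 HepG2 cells at 80% confluency were transfected with antisense oligonucleotide using 3.75 μg/mL Lipofectin in Opti-MEM for 4-7 h and harvested 16-24 h after treatment. Apolipoprotein B mRNA was measured by real-time RT-PCR and normalized to GAPDH or RiboGreen total RNA. Percent inhibition came from untreated-control standard curves.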

In the oligonucleotide strings, read from the 5' end, every base follows the letter of its sugar. An asterisk marks phosphorothioate; unmarked linkages are phosphodiester. Other units and linkages are bracketed, terminal groups are in braces. A string of capitals states the bases alone. e = 2'-O-(2-methoxyethyl) (MOE); [5mC] = 5-methylcytosine; d = 2'-deoxy (DNA)

These results are taken from US7803930B2, “Antisense modulation of apolipoprotein B-expression” (Isis Pharmaceuticals, Inc., priority 2002, dated 2010).

Regarding “301083 (antisense eA*eG*eA*eA*eG*dA*dT*dG*d[5mC]*dA*dA*d[5mC]*d[5mC]*dA*d[5mC]*eA*eT*eG*eT*eA) [compound 301083]”, the “% INHIB” value is on record as 29%.

For the substance “301084 (antisense eA*e[5mC]*eA*e[5mC]*eG*dG*dT*dA*dT*d[5mC]*d[5mC]*dT*dA*dT*dG*eG*eA*eG*eG*eA) [compound 301084]”, the “% INHIB” value is given as 49%.

As for “301085 (antisense eT*eG*eG*eG*eA*d[5mC]*dT*dT*dA*d[5mC]*d[5mC]*dA*dT*dG*d[5mC]*e[5mC]*eT*eT*eT*eG) [compound 301085]”, the “% INHIB” value stood at 11%.

For “301086 (antisense eG*eG*eT*eT*eT*dT*dG*d[5mC]*dT*dG*d[5mC]*d[5mC]*d[5mC]*dT*dA*e[5mC]*eA*eT*e[5mC]*e[5mC]) [compound 301086]”, the “% INHIB” value is reported as 30%.

On to “301087 (antisense eA*e[5mC]*eA*eA*eG*dG*dA*dG*dT*d[5mC]*d[5mC]*dT*dT*dG*dT*eG*e[5mC]*eA*eG*eA) [compound 301087]”, for which the “% INHIB” value is recorded as 40%.

Turning to “301088 (antisense eA*eT*eG*eT*eT*d[5mC]*dA*d[5mC]*dT*dG*dA*dG*dA*d[5mC]*dA*eG*eG*e[5mC]*eT*eG) [compound 301088]”, the “% INHIB” value stood at 41%.

With “301089 (antisense eG*eA*eA*eG*eG*dT*d[5mC]*d[5mC]*dA*dT*dG*dG*dT*dT*d[5mC]*eA*eT*e[5mC]*eT*eG) [compound 301089]”, the “% INHIB” value was 0%.

In the case of “301090 (antisense eA*eT*eT*eA*eG*dA*d[5mC]*dT*dG*dG*dA*dA*dG*d[5mC]*dA*eT*e[5mC]*e[5mC]*eT*eG) [compound 301090]”, the “% INHIB” value is 39%.

“301091 (antisense eG*eA*eG*eA*eT*dT*dG*dG*dA*dG*dA*d[5mC]*dG*dA*dG*e[5mC]*eA*eT*eT*eT) [compound 301091]”: the “% INHIB” value is reported as 35%.

Regarding “301092 (antisense e[5mC]*eA*eT*eG*eA*d[5mC]*d[5mC]*dT*dA*d[5mC]*dT*dT*dG*dT*dA*eG*eG*eA*eG*eA) [compound 301092]”, the “% INHIB” value stood at 22%.

“301093 (antisense eT*eG*eG*eA*eT*dT*dT*dG*dG*dA*dT*dA*d[5mC]*dA*d[5mC]*eA*eA*eG*eT*eT) [compound 301093]”: the “% INHIB” value was found to be 42%.

With “301094 (antisense eA*e[5mC]*eT*e[5mC]*eA*dA*dT*dA*dT*dA*dT*dA*dT*dT*d[5mC]*eA*eT*eT*eG*eA) [compound 301094]”, the “% INHIB” value was 22%.

For the substance “301095 (antisense e[5mC]*eA*eA*eG*eG*dA*dA*dG*d[5mC]*dA*d[5mC]*dA*d[5mC]*d[5mC]*dA*eT*eG*eT*e[5mC]*eA) [compound 301095]”, the “% INHIB” value is on record as 38%.

In the case of “301096 (antisense eA*eT*eA*e[5mC]*eT*dT*dA*dT*dT*d[5mC]*d[5mC]*dT*dG*dG*dT*eA*eA*e[5mC]*e[5mC]*eA) [compound 301096]”, the “% INHIB” value came out at 24%.

On to “301097 (antisense eG*eG*eT*eA*eG*d[5mC]*d[5mC]*dA*dG*dA*dA*d[5mC]*dA*d[5mC]*d[5mC]*eA*eG*eT*eG*eT) [compound 301097]”, for which the “% INHIB” value was 50%.

“301098 (antisense eA*e[5mC]*eT*eA*eG*dA*dG*dG*dT*dA*dG*d[5mC]*d[5mC]*dA*dG*eA*eA*e[5mC]*eA*e[5mC]) [compound 301098]”: the “% INHIB” value is given as 34%.

Consider “301099 (antisense eA*e[5mC]*e[5mC]*eA*e[5mC]*d[5mC]*dT*dG*dA*d[5mC]*dA*dT*d[5mC]*dA*d[5mC]*eA*eG*eG*eT*eT) [compound 301099]”, for which the “% INHIB” value turned out to be 24%.

Consider “301100 (antisense eT*eA*e[5mC]*eT*eG*dT*dG*dA*d[5mC]*d[5mC]*dT*dA*dT*dG*d[5mC]*e[5mC]*eA*eG*eG*eA) [compound 301100]”, for which the “% INHIB” value amounted to 55%.

Consider “301101 (antisense eG*eG*eA*eG*eG*dT*dG*d[5mC]*dT*dA*d[5mC]*dT*dG*dT*dT*eG*eA*e[5mC]*eA*eT) [compound 301101]”, for which the “% INHIB” value amounted to 42%.

Consider “301102 (antisense eT*e[5mC]*e[5mC]*eA*eG*dA*d[5mC]*dT*dT*dG*dT*d[5mC]*dT*dG*dA*eG*eT*e[5mC]*eT*eA) [compound 301102]”, for which the “% INHIB” value was determined as 47%.

Consider “301103 (antisense eT*e[5mC]*eT*eA*eA*dG*dA*dG*dG*dT*dA*dG*dA*dG*d[5mC]*eT*eA*eA*eA*eG) [compound 301103]”, for which the “% INHIB” value is reported as 7%.

Consider “301104 (antisense e[5mC]*e[5mC]*eA*eG*eA*dG*dA*dT*dG*dA*dG*d[5mC]*dA*dA*d[5mC]*eT*eT*eA*eG*eG) [compound 301104]”, for which the “% INHIB” value is listed as 38%.

Regarding “301105 (antisense eG*eG*e[5mC]*e[5mC]*eA*dT*dG*dT*dA*dA*dA*dT*dT*dG*d[5mC]*eT*e[5mC]*eA*eT*e[5mC]) [compound 301105]”, the “% INHIB” value worked out at 7%.

Turning to “301106 (antisense eA*eA*eA*eG*eA*dA*dA*d[5mC]*dT*dA*dT*d[5mC]*d[5mC]*dT*dG*eT*eA*eT*eT*e[5mC]) [compound 301106]”, the “% INHIB” value worked out at 12%.

For the substance “301107 (antisense eT*eT*e[5mC]*eT*eT*dA*dG*dT*dA*d[5mC]*d[5mC]*dT*dG*dG*dA*eA*eG*eA*eT*eG) [compound 301107]”, the “% INHIB” value amounted to 23%.

Consider “301108 (antisense e[5mC]*eA*eT*eT*eA*dG*dA*dT*dA*d[5mC]*d[5mC]*dT*dG*dG*dA*e[5mC]*eA*e[5mC]*e[5mC]*eT) [compound 301108]”, for which the “% INHIB” value was determined as 29%.

For the substance “301109 (antisense eG*eT*eT*eT*e[5mC]*dA*dT*dG*dG*dA*dA*d[5mC]*dT*d[5mC]*dA*eG*e[5mC]*eG*e[5mC]*eA) [compound 301109]”, the “% INHIB” value is reported as 44%.

Take “301110 (antisense e[5mC]*eT*eG*eG*eA*dG*dA*dG*d[5mC]*dA*d[5mC]*d[5mC]*dT*dG*d[5mC]*eA*eA*eT*eA*eG) [compound 301110]”: the “% INHIB” value turned out to be 35%.

“301111 (antisense eT*eG*eA*eA*eG*dG*dG*dT*dA*dG*dA*dG*dA*dA*dA*eT*e[5mC]*eA*eT*eA) [compound 301111]”: the “% INHIB” value stood at 9%.

With “301112 (antisense eG*eG*eA*eA*eA*d[5mC]*dT*d[5mC]*dA*d[5mC]*dT*dT*dG*dT*dT*eG*eA*e[5mC]*e[5mC]*eG) [compound 301112]”, the “% INHIB” value is recorded as 25%.

On to “301113 (antisense eA*eG*eG*eT*eG*d[5mC]*dA*dA*dG*dA*dT*dG*dT*dT*d[5mC]*e[5mC]*eT*e[5mC]*eT*eG) [compound 301113]”, for which the “% INHIB” value came to 46%.

Take “301114 (antisense eT*eG*e[5mC]*eA*e[5mC]*dA*dG*dA*dG*dG*dT*dG*d[5mC]*dA*dA*eG*eA*eT*eG*eT) [compound 301114]”: the “% INHIB” value is 16%.

Take “301115 (antisense e[5mC]*eA*e[5mC]*eA*eA*dG*dA*dG*dT*dA*dA*dG*dG*dA*dG*e[5mC]*eA*eG*eA*eG) [compound 301115]”: the “% INHIB” value is reported as 39%.

“301116 (antisense eG*eA*eT*eG*eG*dA*dT*dG*dG*dT*dG*dA*dG*dA*dA*eA*eT*eT*eA*e[5mC]) [compound 301116]”: the “% INHIB” value is on record as 33%.

As for “301117 (antisense eT*eA*eG*eA*e[5mC]*dA*dA*dT*dT*dG*dA*dG*dA*d[5mC]*dT*e[5mC]*eA*eG*eA*eA) [compound 301117]”, the “% INHIB” value is listed as 39%.

For “301118 (antisense eA*eT*eG*eT*eG*d[5mC]*dA*d[5mC]*dA*d[5mC]*dA*dA*dG*dG*dA*e[5mC]*eA*eT*eA*eG) [compound 301118]”, the “% INHIB” value was 33%.

Regarding “301119 (antisense eA*e[5mC]*eA*eT*eA*d[5mC]*dA*dA*dA*dT*dG*dG*d[5mC]*dA*dA*eT*eA*eG*eG*e[5mC]) [compound 301119]”, the “% INHIB” value worked out at 33%.

“301120 (antisense eT*eA*eG*eG*e[5mC]*dA*dA*dA*dG*dG*dA*d[5mC]*dA*dT*dG*eA*eA*eT*eA*eG) [compound 301120]”: the “% INHIB” value is listed as 30%.

On to “301121 (antisense eT*eT*eA*eT*eG*dA*dT*dA*dG*d[5mC]*dT*dA*d[5mC]*dA*dG*eA*eA*eT*eA*eA) [compound 301121]”, for which the “% INHIB” value is on record as 29%.

Consider “301122 (e[5mC]*eT*eG*eA*eG*dA*dT*dT*dA*d[5mC]*d[5mC]*d[5mC]*dG*d[5mC]*dA*eG*eA*eA*eT*e[5mC]; antisense) [compound 301122]”, for which the “% INHIB” value is 32%.

For “301123 (eG*eA*eT*eG*eT*dA*dT*dG*dT*d[5mC]*dA*dT*dA*dT*dA*eA*eA*eA*eG*eA; antisense) [compound 301123]”, the “% INHIB” value was found to be 26%.

For the substance “301124 (eT*eT*eT*e[5mC]*e[5mC]*dA*dA*dT*dG*dA*d[5mC]*d[5mC]*dT*dG*d[5mC]*eA*eT*eT*eG*eA; antisense) [compound 301124]”, the “% INHIB” value amounted to 48%.

In the case of “301125 (eA*eG*eG*eG*eA*dT*dG*dG*dT*d[5mC]*dA*dA*dT*d[5mC]*dT*eG*eG*eT*eA*eG; antisense) [compound 301125]”, the “% INHIB” value is on record as 57%.

For the substance “301126 (eG*eG*e[5mC]*eT*eA*dA*dT*dA*dA*dA*dT*dA*dG*dG*dG*eT*eA*eG*eT*eT; antisense) [compound 301126]”, the “% INHIB” value was 22%.

Consider “301127 (eT*e[5mC]*e[5mC]*eT*eA*dG*dA*dG*d[5mC]*dA*d[5mC]*dT*dA*dT*d[5mC]*eA*eA*eG*eT*eA; antisense) [compound 301127]”, for which the “% INHIB” value turned out to be 41%.

Turning to “301128 (e[5mC]*e[5mC]*eT*e[5mC]*e[5mC]*dT*dG*dG*dT*d[5mC]*d[5mC]*dT*dG*d[5mC]*dA*eG*eT*e[5mC]*eA*eA; antisense) [compound 301128]”, the “% INHIB” value is 56%.

As to “301129 (e[5mC]*eA*eT*eT*eT*dG*d[5mC]*dA*d[5mC]*dA*dA*dG*dT*dG*dT*eT*eT*eG*eT*eT; antisense) [compound 301129]”, the “% INHIB” value was found to be 35%.
